biological target: T1, Prostaglandin G/H synthase 2 (Homo sapiens, UniProt P35354); conditions: not given
T1 sequence (P35354 whole entry): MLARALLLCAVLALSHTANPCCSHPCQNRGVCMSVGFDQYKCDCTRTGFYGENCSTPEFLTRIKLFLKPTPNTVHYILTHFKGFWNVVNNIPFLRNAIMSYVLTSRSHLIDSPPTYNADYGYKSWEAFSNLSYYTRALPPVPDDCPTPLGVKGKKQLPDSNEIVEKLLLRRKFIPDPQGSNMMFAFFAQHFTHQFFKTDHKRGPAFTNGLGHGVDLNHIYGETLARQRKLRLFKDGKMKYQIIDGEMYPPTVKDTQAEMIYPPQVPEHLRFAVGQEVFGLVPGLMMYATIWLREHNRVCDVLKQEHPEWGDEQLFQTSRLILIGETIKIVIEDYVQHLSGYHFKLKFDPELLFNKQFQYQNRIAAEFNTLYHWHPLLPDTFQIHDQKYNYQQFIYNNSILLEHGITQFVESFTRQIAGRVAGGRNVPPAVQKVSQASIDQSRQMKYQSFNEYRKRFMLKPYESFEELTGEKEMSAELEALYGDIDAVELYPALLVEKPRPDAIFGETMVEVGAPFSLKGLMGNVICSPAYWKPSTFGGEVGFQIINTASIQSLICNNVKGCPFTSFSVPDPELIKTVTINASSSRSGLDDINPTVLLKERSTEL

IC50 [nM]	Compound
146	CS(=O)(=O)c1ccc(-c2[nH]c3ccccc3c2-c2ccc(Cl)cc2)cc1
0.14	NS(=O)(=O)c1ccc(-c2[nH]c3ccc(Cl)cc3c2-c2ccccc2)cc1
0.54	NS(=O)(=O)c1ccc(-c2[nH]c3ccc(Cl)cc3c2-c2ccc(Cl)cc2)cc1
1.46	Cc1ccc(-c2c(-c3ccc(S(N)(=O)=O)cc3)[nH]c3ccccc23)cc1C
0.09	NS(=O)(=O)c1ccc(-c2[nH]c3ccccc3c2-c2ccccc2)cc1
0.37	CS(=O)(=O)c1ccc(-c2[nH]c3ccccc3c2-c2ccc(Br)cc2)cc1
0.02	Cc1ccc2[nH]c(-c3ccc(S(N)(=O)=O)cc3)c(-c3ccccc3)c2c1
0.28	Cc1ccc2[nH]c(-c3ccc(S(C)(=O)=O)cc3)c(-c3ccccc3)c2c1
0.09	Cc1ccc(-c2c(-c3ccc(S(C)(=O)=O)cc3)[nH]c3ccccc23)cc1
0.02	COc1ccc(-c2c(-c3ccc(S(C)(=O)=O)cc3)[nH]c3ccccc23)cc1
6.44	NS(=O)(=O)c1ccc(-c2[nH]c3ccccc3c2-c2ccc(O)cc2)cc1
1.41	CS(=O)(=O)c1ccc(-c2[nH]c3ccc(Br)cc3c2-c2ccccc2)cc1
0.6	CS(=O)(=O)c1ccc(-c2[nH]c3ccccc3c2-c2ccccc2)cc1

same assay, conditions: read-out: IC50

IC50 [nM]	Compound
2	NS(=O)(=O)c1ccc(-c2[nH]c3ccc(F)cc3c2-c2ccccc2)cc1
5	NS(=O)(=O)c1ccc(-c2[nH]c3ccc(Br)cc3c2-c2ccccc2)cc1
0.07	Cc1ccc(-c2c(-c3ccc(S(N)(=O)=O)cc3)[nH]c3ccccc23)cc1
5	CS(=O)(=O)c1ccc(-c2[nH]c3ccc(F)cc3c2-c2ccccc2)cc1
33.5	NS(=O)(=O)c1ccc(-c2[nH]c3ccccc3c2-c2ccc(Cl)cc2)cc1
3.13	NS(=O)(=O)c1ccc(-c2[nH]c3ccc(Cl)cc3c2-c2cccc(Cl)c2)cc1
85.1	CS(=O)(=O)c1ccc(-c2[nH]c3ccc(Cl)cc3c2-c2ccc(Cl)cc2)cc1
0.8	CS(=O)(=O)c1ccc(-c2[nH]c3ccc(Cl)cc3c2-c2cccc(Cl)c2)cc1
0.17	Cc1ccc(-c2c(-c3ccc(S(C)(=O)=O)cc3)[nH]c3ccccc23)cc1C
0.18	CC(=O)NS(=O)(=O)c1ccc(-c2[nH]c3ccccc3c2-c2ccccc2)cc1

Compound	IC50 [nM]
NS(=O)(=O)c1ccc(-c2[nH]c3ccc(Cl)cc3c2-c2ccccc2Cl)cc1	100
NS(=O)(=O)c1ccc(-c2[nH]c3ccccc3c2-c2ccc(F)cc2)cc1	5.15
CS(=O)(=O)c1ccc(-c2[nH]c3ccc(Cl)cc3c2-c2ccccc2Cl)cc1	10

Source: ChEMBL document CHEMBL1156674, “Exploration of physicochemical properties and molecular modelling studies of 2-sulfonyl-phenyl-3-phenyl-indole analogs as cyclooxygenase-2 inhibitors” (Eur J Med Chem, 2008)
